Measurements reported in patent publication US7294635B2 (Portola Pharmaceuticals, Inc., priority 2003, dated 2007).

What follows are compounds tested on ADP-induced human platelet aggregation (assay: Inhibition of ADP-mediated platelet aggregation in vitro using platelet-rich plasma (PRP assay)). Settings: 5 min; human platelet-rich plasma, 2 μM ADP, 96-well microtiter, OD 650 nm at 5 min; read-out: Activity in the PRP assay.
Format: cell-based
Method: This Example Provides an Assay for the Inhibition of ADP-Mediated Platelet Aggregation In Vitro Using Platelet-Rich Plasma (PRP)
Platelet-rich plasma (PRP) is prepared by centrifugation at 160×g for 20 minutes at room temperature. PRP is collected, and the platelet concentration is determined using a Coulter counter or hemocytometer (platelet concentration should be 2-4×10^8 platelets per mL).
Inhibition of ADP-dependent aggregation is preferably determined in 96-well flat-bottom microtiter plates using a microtiter plate shaker and plate reader similar to the procedure described by Frantantoni et al., Am. J. Clin. Pathol. […] All steps are performed at room temperature. The total reaction volume of 0.2 mL/well includes: PRP (˜6×10^7 total platelets in the presence of plasma), serial dilutions of test compounds (buffer for control wells) in 0.6% DMSO. After about 5 minutes preincubation at room temperature, ADP is added to a final concentration of 2 μM which induces submaximal aggregation. Buffer is added instead of ADP to one set of control wells (ADP-control). The OD of the samples is then determined at 650 nm using a microtiter plate reader (Softmax, Molecular Devices, Menlo Park, Calif.) resulting in the 0 minute reading. The plates are then agitated for 5 min on a microtiter plate shaker and the 5 minute reading is obtained in the plate reader. Aggregation is calculated from the decrease of OD at 650 nm at t=5 minutes compared to t=0 minutes and is expressed as % of the decrease in the ADP control samples after correcting for changes in the unaggregated control samples.

Q: `CN(C)c1cc2ccn(-c3ccc(NC(=O)NS(=O)(=O)c4ccc(Cl)s4)cc3)c(=O)c2cc1F` [Example 26, 5-chloro-N-[({4-[6-(dimethylamino)-7-fluoro-1-oxoisoquinolin-2(1H)-yl]phenyl}amino)carbonyl]thiophene-2-sulfonamide] was tested. Which IC50 did it give?
A: Its IC50 is > 30 µM.

Q: `CNc1cc2ccn(-c3ccc(NC(=O)NS(=O)(=O)c4ccc(OC)s4)cc3)c(=O)c2cc1F` [Example 34] was tested. Which IC50 did it give?
A: The IC50 was < 10 µM.

Q: Which IC50 does the source give for `O=CNc1cc2ccn(-c3ccc(NC(=O)NS(=O)(=O)c4ccc(Cl)s4)cc3)c(=O)c2cc1F` [Example 14, 5-chloro-N-[({4-[7-fluoro-6-(formylamino)-1-oxoisoquinolin-2(1H)-yl]phenyl}amino)carbonyl]thiophene-2-sulfonamide] here?
A: The IC50 was > 30 µM.

Q: For `CNc1cc2ccn(-c3cc(C)c(NC(=O)NS(=O)(=O)c4ccc(Cl)s4)c(C)c3)c(=O)c2cc1F` [Example 96, 5-chloro-N-[({4-[7-fluoro-6-(methylamino)-1-oxoisoquinolin-2(1H)-yl]-2,6-dimethylphenyl}amino)carbonyl]thiophene-2-sulfonamide], which IC50 is on record?
A: The IC50 was < 10 µM.

Q: `CNc1cc2ccn(-c3ccc(NC(=O)NS(=O)(=O)c4ccc(Cl)s4)c(OCCN(C)C)c3)c(=O)c2cc1F` [Example 93, 5-chloro-N-[({2-[2-(dimethylamino)ethoxy]-4-[7-fluoro-6-(methylamino)-1-oxoisoquinolin-2(1H)-yl]phenyl}amino)carbonyl]thiophene-2-sulfonamide] was tested. Which IC50 did it give?
A: The IC50 was < 10 µM.

Q: With `CNc1cc2ccn(-c3ccc(NC(=O)NS(=O)(=O)c4ccc(Cl)s4)c(OC(C)C)c3)c(=O)c2cc1F` [Example 84, 5-chloro-N-[({4-[7-fluoro-6-(methylamino)-1-oxoisoquinolin-2(1H)-yl]-2-isopropoxyphenyl}amino)carbonyl]thiophene-2-sulfonamide] as the compound, how does the IC50 read?
A: Its IC50 is 10 to 30 µM.

Q: With `CNc1cc2ccn(-c3ccc(NC(=O)NS(=O)(=O)c4cc(Cl)cs4)cc3)c(=O)c2cc1F` [Example 37] as the compound, how does the IC50 read?
A: The IC50 was < 10 µM.

Q: `CNc1cc2ccn(-c3ccc(NC(=O)NS(=O)(=O)c4ccc(Cl)s4)c(S(C)(=O)=O)c3)c(=O)c2cc1F` [Example 102, 5-chloro-N-({[4-[7-fluoro-6-(methylamino)-1-oxoisoquinolin-2(1H)-yl]-2-(methylsulfonyl)phenyl]amino}carbonyl)thiophene-2-sulfonamide] was tested. Which IC50 did it give?
A: Its IC50 is > 30 µM.

Q: For `CNc1cc2ccn(-c3ccc(NC(=O)NS(=O)(=O)c4ccc(Cl)s4)c(OCOC)c3)c(=O)c2cc1F` [Example 76, 5-chloro-N-({[4-[7-fluoro-6-(methylamino)-1-oxoisoquinolin-2(1H)-yl]-2-(methoxymethoxy)phenyl]amino}carbonyl)thiophene-2-sulfonamide], which IC50 is on record?
A: Its IC50 is < 10 µM.

Q: How did the IC50 turn out when `O=C(Nc1ccc(-n2ccc3cc(NCCF)c(F)cc3c2=O)cc1)NS(=O)(=O)c1ccc(Cl)s1` [Example 20, 5-chloro-N-[({4-[7-fluoro-6-[(2-fluoroethyl)amino]-1-oxoisoquinolin-2(1H)-yl]phenyl}amino)carbonyl]thiophene-2-sulfonamide] was run?
A: The IC50 was < 10 µM.

Q: With `CCOc1cc(-n2ccc3cc(NC)c(F)cc3c2=O)ccc1NC(=O)NS(=O)(=O)c1ccc(Cl)s1` [Example 90, 5-chloro-N-[({2-ethoxy-4-[7-fluoro-6-(methylamino)-1-oxoisoquinolin-2(1H)-yl]phenyl}amino)carbonyl]thiophene-2-sulfonamide] as the compound, how does the IC50 read?
A: Its IC50 is < 10 µM.

Q: With `CNc1cc2ccn(-c3ccc(NC(=O)NS(=O)(=O)c4ccc(Cl)s4)cc3C(C)O)c(=O)c2cc1F` (stereo not shown) [Example 74, 5-chloro-N-({[4-[7-fluoro-6-(methylamino)-1-oxoisoquinolin-2(1H)-yl]-3-(1-hydroxyethyl)phenyl]amino}carbonyl)thiophene-2-sulfonamide] as the compound, how does the IC50 read?
A: Its IC50 is > 30 µM.

Q: `CNc1cc2ccn(-c3ccc(NC(=O)NS(=O)(=O)c4ccc(Cl)s4)c(OCc4ccccc4)c3)c(=O)c2cc1F` [Example 79, N-[({2-(benzyloxy)-4-[7-fluoro-6-(methylamino)-1-oxoisoquinolin-2(1H)-yl]phenyl}amino)carbonyl]-5-chlorothiophene-2-sulfonamide] was tested. Which IC50 did it give?
A: Its IC50 is > 30 µM.

Q: With `CNc1cc2ccn(-c3ccc(NC(=O)NS(=O)(=O)c4sccc4Cl)cc3)c(=O)c2cc1F` [Example 40] as the compound, how does the IC50 read?
A: Its IC50 is > 30 µM.

Q: How did the IC50 turn out when `CNc1cc2ccn(-c3ccc(NC(=O)NS(=O)(=O)c4cc(C(F)F)cs4)cc3)c(=O)c2cc1F` [Example 39] was run?
A: The IC50 was 10 to 30 µM.

Q: For `CNc1cc2ccn(-c3ccc(NC(=O)NS(=O)(=O)c4ccc(Cl)s4)c(OC(F)(F)F)c3)c(=O)c2cc1F` [Example 87, 5-chloro-N-({[4-[7-fluoro-6-(methylamino)-1-oxoisoquinolin-2(1H)-yl]-2-(trifluoromethoxy)phenyl]amino}carbonyl)thiophene-2-sulfonamide], which IC50 is on record?
A: The IC50 was < 10 µM.

Q: How did the IC50 turn out when `CNc1cc2ccn(-c3ccc(NC(=O)NS(=O)(=O)c4ccc(Cl)s4)cc3COC(C)=O)c(=O)c2cc1F` [Example 62, 5-[({[(5-chlorothien-2-yl)sulfonyl]amino}carbonyl)amino]-2-[7-fluoro-6-(methylamino)-1-oxoisoquinolin-2(1H)-yl]benzyl acetate] was run?
A: Its IC50 is 10 to 30 µM.

Q: With `CNc1c(F)cc2c(=O)n(-c3ccc(NC(=O)NS(=O)(=O)c4ccc(Cl)s4)cc3)ccc2c1C#N` [Example 118, 5-chloro-N-[({4-[5-cyano-7-fluoro-6-(methylamino)-1-oxoisoquinolin-2(1H)-yl]phenyl}amino)carbonyl]thiophene-2-sulfonamide] as the compound, how does the IC50 read?
A: The IC50 was 10 to 30 µM.

Q: For `CNc1cc2ccn(-c3ccc(NC(=O)NS(=O)(=O)c4ccc(Cl)s4)c(F)c3)c(=O)c2cc1F` [Example 58, 5-chloro-N-[({2-fluoro-4-[7-fluoro-6-(methylamino)-1-oxoisoquinolin-2(1H)-yl]phenyl}amino)carbonyl]thiophene-2-sulfonamide], which IC50 is on record?
A: The IC50 was < 10 µM.

Q: Which IC50 does the source give for `CNc1cc2ccn(-c3ccc(NC(=O)NS(=O)(=O)c4cccs4)cc3)c(=O)c2cc1F` [Example 27, N-[({4-[7-fluoro-6-(methylamino)-1-oxoisoquinolin-2(1H)-yl]phenyl}amino)carbonyl]thiophene-2-sulfonamide] here?
A: Its IC50 is < 10 µM.

Q: How did the IC50 turn out when `CNc1cc2ccn(-c3ccc(NC(=O)NS(=O)(=O)c4ccc(Cl)s4)c(C)n3)c(=O)c2cc1F` [Example 55, 5-chloro-N-[({6-[7-fluoro-6-(methylamino)-1-oxoisoquinolin-2(1H)-yl]-2-methylpyridin-3-yl}amino)carbonyl]thiophene-2-sulfonamide] was run?
A: Its IC50 is < 10 µM.

Q: For `CCc1ccc(S(=O)(=O)NC(=O)Nc2ccc(-n3ccc4cc(NC)c(F)cc4c3=O)cc2)s1` [Example 30], which IC50 is on record?
A: Its IC50 is < 10 µM.

Q: `CNc1cc2ccn(-c3ccc(NC(=O)NS(=O)(=O)c4ccc(Cl)s4)c(C(=O)O)c3)c(=O)c2cc1F` [Example 99, 2-[({[(5-chlorothien-2-yl)sulfonyl]amino}carbonyl)amino]-5-[7-fluoro-6-(methylamino)-1-oxoisoquinolin-2(1H)-yl]benzoic acid] was tested. Which IC50 did it give?
A: The IC50 was < 10 µM.

Q: For `CNc1cc2ccn(-c3ccc(NC(=O)NS(=O)(=O)c4ccc(Cl)s4)c(OCC4CC4)c3)c(=O)c2cc1F` [Example 86, 5-chloro-N-[({2-(cyclopropylmethoxy)-4-[7-fluoro-6-(methylamino)-1-oxoisoquinolin-2(1H)-yl]phenyl}amino)carbonyl]thiophene-2-sulfonamide], which IC50 is on record?
A: The IC50 was < 10 µM.

Q: Which IC50 does the source give for `O=C(Nc1ccc(-n2ccc3cc(NCc4ccc(Cl)cc4)c(F)cc3c2=O)cc1)NS(=O)(=O)c1ccc(Cl)s1` [Example 23, 5-chloro-N-[({4-[6-[(4-chlorobenzyl)amino]-7-fluoro-1-oxoisoquinolin-2(1H)-yl]phenyl}amino)carbonyl]thiophene-2-sulfonamide] here?
A: Its IC50 is < 10 µM.
